Experimental data from the NIST ThermoML archive (doi:10.1007/s10765-005-8591-6).

Assay: xn = mol fraction of the nth substance listed
Conditions: Fluid (supercritical or subcritical phases), Constant-volume piezometry

FC(F)C(F)(F)F [pentafluoroethane] + FCF
Conditions	mass density [kg/m3]
258.15 K, 2177 kPa, x2 = 0.3004	1342.88
258.16 K, 1554.4 kPa, x2 = 0.4995	1294.18
258.16 K, 4595.6 kPa, x2 = 0	1403.78
259.14 K, 2658.3 kPa, x2 = 0.6995	1234.39
259.15 K, 2403.7 kPa, x2 = 0.4995	1294.07
259.15 K, 2913.1 kPa, x2 = 0.3004	1342.77
261.15 K, 3061.1 kPa, x2 = 0.8997	1151.87
261.15 K, 4118.3 kPa, x2 = 0.4995	1293.85
261.15 K, 4474.9 kPa, x2 = 0.3004	1342.56
261.15 K, 4516.2 kPa, x2 = 0.6995	1234.17
261.15 K, 6579.8 kPa, x2 = 0	1403.47
262.14 K, 4056 kPa, x2 = 0.8997	1151.77
262.14 K, 7284.6 kPa, x2 = 0	1403.36
263.15 K, 5058.3 kPa, x2 = 0.8997	1151.67
263.15 K, 5848.5 kPa, x2 = 0.4995	1293.64
263.15 K, 6106.3 kPa, x2 = 0.3004	1342.34
263.15 K, 6362.9 kPa, x2 = 0.6995	1233.97
264.15 K, 3235.2 kPa, x2 = 0.098	1362.36
264.15 K, 6053.5 kPa, x2 = 0.8997	1151.57
264.15 K, 7288.1 kPa, x2 = 0.6995	1233.88
265.15 K, 7050.9 kPa, x2 = 0.8997	1151.47
265.15 K, 7767 kPa, x2 = 0.3004	1342.13
265.15 K, 8213.6 kPa, x2 = 0.6995	1233.78
265.17 K, 7585.9 kPa, x2 = 0.4995	1293.43
267.15 K, 9040.9 kPa, x2 = 0.8997	1151.28
267.15 K, 9274.4 kPa, x2 = 0.4995	1293.23
267.15 K, 10051 kPa, x2 = 0.6995	1233.58
267.16 K, 5301.3 kPa, x2 = 0.098	1362.04
267.16 K, 9382.9 kPa, x2 = 0.3004	1341.92
267.16 K, 10809 kPa, x2 = 0	1402.84
268.15 K, 10032 kPa, x2 = 0.8997	1151.19
268.2 K, 10152 kPa, x2 = 0.4995	1293.13
269.14 K, 10950 kPa, x2 = 0.4995	1293.04
269.15 K, 10983 kPa, x2 = 0.3004	1341.71
269.15 K, 11894 kPa, x2 = 0.6995	1233.38
269.16 K, 11031 kPa, x2 = 0.8997	1151.09
270.15 K, 7414.4 kPa, x2 = 0.098	1361.73
270.19 K, 13003 kPa, x2 = 0	1402.53
271.13 K, 12647 kPa, x2 = 0.4995	1292.84
271.15 K, 13008 kPa, x2 = 0.8997	1150.92
271.16 K, 13740 kPa, x2 = 0.6995	1233.2
273.08 K, 14311 kPa, x2 = 0.4995	1292.65
273.15 K, 9532.7 kPa, x2 = 0.098	1361.42
273.15 K, 14255 kPa, x2 = 0.3004	1341.32
273.15 K, 14990 kPa, x2 = 0.8997	1150.74
273.15 K, 15076 kPa, x2 = 0	1402.23
273.16 K, 15579 kPa, x2 = 0.6995	1233.01
274.14 K, 15969 kPa, x2 = 0.8997	1150.66
274.16 K, 16499 kPa, x2 = 0.6995	1232.92
275.13 K, 16066 kPa, x2 = 0.4995	1292.46
275.15 K, 16572 kPa, x2 = 0	1402.04
282.15 K, 15978 kPa, x2 = 0.098	1360.53
313.13 K, 2217.5 kPa, x2 = 0.3003	1050.39
313.15 K, 2820.6 kPa, x2 = 0.1	1097.54
318.14 K, 2959 kPa, x2 = 0.8992	900.95
318.15 K, 2921.8 kPa, x2 = 0.6998	949.66
318.15 K, 4528.5 kPa, x2 = 0.1	1097.17
318.18 K, 3901.3 kPa, x2 = 0.3003	1050.03
318.21 K, 3341.8 kPa, x2 = 0.4993	1000.3
323.13 K, 5212.3 kPa, x2 = 0.8992	900.63
323.14 K, 4867 kPa, x2 = 0.6998	949.34
323.15 K, 5129.3 kPa, x2 = 0.4993	999.96
323.16 K, 5645.9 kPa, x2 = 0.3003	1049.68
323.16 K, 6252.9 kPa, x2 = 0.1	1096.79
328.14 K, 6839.9 kPa, x2 = 0.6998	949.01
328.15 K, 7408.9 kPa, x2 = 0.3003	1049.33
328.15 K, 7986 kPa, x2 = 0.1	1096.43
328.16 K, 6969.7 kPa, x2 = 0.4993	999.62
328.16 K, 7509.2 kPa, x2 = 0.8992	900.31
333.13 K, 8834 kPa, x2 = 0.6998	948.69
333.13 K, 9793.4 kPa, x2 = 0.8992	900.01
333.14 K, 9188.4 kPa, x2 = 0.3003	1048.98
333.15 K, 8814.5 kPa, x2 = 0.4993	999.29
333.17 K, 9741.9 kPa, x2 = 0.1	1096.06
338.12 K, 12100 kPa, x2 = 0.8992	899.7
338.13 K, 10843 kPa, x2 = 0.6998	948.37
338.13 K, 10979 kPa, x2 = 0.3003	1048.63
338.14 K, 11489 kPa, x2 = 0.1	1095.7
338.19 K, 10690 kPa, x2 = 0.4993	998.95
343.12 K, 12860 kPa, x2 = 0.6998	948.05
343.12 K, 14419 kPa, x2 = 0.8992	899.4
343.13 K, 12772 kPa, x2 = 0.3003	1048.29
343.13 K, 13247 kPa, x2 = 0.1	1095.35
343.18 K, 12550 kPa, x2 = 0.4993	998.62
348.12 K, 14887 kPa, x2 = 0.6998	947.74
348.13 K, 16746 kPa, x2 = 0.8992	899.1
348.16 K, 14423 kPa, x2 = 0.4993	998.3
348.16 K, 15022 kPa, x2 = 0.1	1094.99
348.17 K, 14592 kPa, x2 = 0.3003	1047.95
353.11 K, 16917 kPa, x2 = 0.6998	947.43
353.13 K, 16290 kPa, x2 = 0.4993	997.98
353.14 K, 16386 kPa, x2 = 0.3003	1047.61
353.14 K, 16782 kPa, x2 = 0.1	1094.64
354.13 K, 16744 kPa, x2 = 0.3003	1047.54
354.15 K, 16672 kPa, x2 = 0.4993	997.91
